Literature values as cited in patent US6586473B1, “Topical drug delivery composition and method” (Medicis Pharmaceutical Corporation, priority 1989, dated 2003).

Test system: photoaged skin

dermatitis as a result of treatment (0.1% tretinoin cream, topical): most patients experience dermatitis
Structure (SMILES): CC1=C(/C=C/C(C)=C/C=C/C(C)=C/C(=O)O)C(C)(C)CCC1 [tretinoin, all trans-retinoic acid]
effects of photoaging (wrinkling, sallowness, roughness, mottled pigmentation) (0.1% cream daily for sixteen weeks): can improve the effects of photoaging | duration of initial dermatitis (xerosis, peeling, subjective irritation) (0.1% tretinoin cream, topical): two weeks to three months
